The compounds below were run against T1, hT1R2/hT1R3 sweet receptor expressed in HEK293 cell line (Homo sapiens, UniProt Q7RTX0+Q8TE23) (assay: In vitro hT1R2/hT1R3-HEK293 taste receptor activation assay (FLIPR)). Conditions: Table A; read-out: SWEET EC50.
T1 construct: expressed in transfected cells; host or cells: HEK293 derivative stably expressing Gα15 and hT1R2/hT1R3, clone S-9
T1 sequence (Q8TE23 20-839): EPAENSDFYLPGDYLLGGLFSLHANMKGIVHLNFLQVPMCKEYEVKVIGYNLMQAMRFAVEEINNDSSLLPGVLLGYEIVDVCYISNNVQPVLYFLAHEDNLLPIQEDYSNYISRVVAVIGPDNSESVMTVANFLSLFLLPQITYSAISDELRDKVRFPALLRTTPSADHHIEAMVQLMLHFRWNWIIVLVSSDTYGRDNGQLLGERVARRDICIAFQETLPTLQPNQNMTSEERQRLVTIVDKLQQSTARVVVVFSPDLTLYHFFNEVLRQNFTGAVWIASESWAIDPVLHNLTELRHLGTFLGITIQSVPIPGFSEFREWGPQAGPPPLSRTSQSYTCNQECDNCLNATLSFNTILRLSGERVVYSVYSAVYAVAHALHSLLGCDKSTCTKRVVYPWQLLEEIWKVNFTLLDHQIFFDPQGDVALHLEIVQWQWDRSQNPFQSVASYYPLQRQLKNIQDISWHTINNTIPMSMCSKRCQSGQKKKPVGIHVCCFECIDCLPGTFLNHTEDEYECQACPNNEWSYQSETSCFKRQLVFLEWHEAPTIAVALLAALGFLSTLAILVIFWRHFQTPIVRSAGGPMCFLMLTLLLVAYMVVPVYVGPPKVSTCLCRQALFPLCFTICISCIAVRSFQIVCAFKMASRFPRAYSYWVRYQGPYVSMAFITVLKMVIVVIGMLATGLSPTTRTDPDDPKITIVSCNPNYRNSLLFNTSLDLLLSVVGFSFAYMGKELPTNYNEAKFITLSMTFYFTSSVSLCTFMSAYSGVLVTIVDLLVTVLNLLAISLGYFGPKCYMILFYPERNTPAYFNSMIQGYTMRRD
T1 sequence (Q7RTX0 21-852): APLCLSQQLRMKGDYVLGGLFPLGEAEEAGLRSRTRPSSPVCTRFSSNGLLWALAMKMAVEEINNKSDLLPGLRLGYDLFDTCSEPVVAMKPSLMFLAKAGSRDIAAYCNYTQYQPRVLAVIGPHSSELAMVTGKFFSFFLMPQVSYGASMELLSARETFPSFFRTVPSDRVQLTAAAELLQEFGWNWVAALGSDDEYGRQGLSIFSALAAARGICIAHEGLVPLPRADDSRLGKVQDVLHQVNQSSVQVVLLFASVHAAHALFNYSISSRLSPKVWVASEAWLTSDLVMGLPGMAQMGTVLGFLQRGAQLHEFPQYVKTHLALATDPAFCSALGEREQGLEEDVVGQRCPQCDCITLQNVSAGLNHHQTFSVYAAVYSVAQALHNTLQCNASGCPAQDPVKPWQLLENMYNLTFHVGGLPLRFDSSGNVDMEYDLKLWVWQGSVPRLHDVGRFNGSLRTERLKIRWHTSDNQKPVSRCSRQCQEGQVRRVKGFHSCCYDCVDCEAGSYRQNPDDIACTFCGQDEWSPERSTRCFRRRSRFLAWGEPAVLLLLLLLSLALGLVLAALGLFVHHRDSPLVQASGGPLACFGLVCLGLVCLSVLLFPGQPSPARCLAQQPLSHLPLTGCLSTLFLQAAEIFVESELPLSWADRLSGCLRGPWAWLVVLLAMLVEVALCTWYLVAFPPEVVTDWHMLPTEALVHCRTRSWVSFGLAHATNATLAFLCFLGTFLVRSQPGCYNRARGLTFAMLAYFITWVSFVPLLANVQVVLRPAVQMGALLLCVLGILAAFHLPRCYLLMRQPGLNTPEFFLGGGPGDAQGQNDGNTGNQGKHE
Type: cell-based
Experimental: An HEK293 cell line derivative (Chandrashekar et al., Cell (2000) 100:703-711) that stably expresses Gα15 and hT1R2/hT1R3 (Li et al., Proc Natl Acad Sci USA (2002) 99:4692-4696), see also PCT Publication No. WO 03/001876 A2) was used to identify compounds with sweet taste enhancing properties.
Compounds covered in this document were initially selected based on their activity on the hT1R2/hT1R3-HEK293-Gα15 cell line (Li et al. vide supra). Activity was determined using an automated fluorometric imaging assay on a FLIPR instrument ([…], Molecular Devices, Sunnyvale, Calif.) (designated FLIPR assay). Cells from one clone (designated S-9 cells) were seeded into 384-well plates (at approximately 50,000 cells per well) in a medium containing DMEM Low Glucose (Invitrogen, Carlsbad, Calif.), 10% dialyzed fetal bovine serum (Invitrogen, Carlsbad, Calif.), 100 Units/ml Penicillin G, and 100 μg/ml Streptomycin (Invitrogen, Carlsbad, Calif.) (Li et al. vide supra) see also PCT Publication No. WO 03/001876 A2). S-9 cells were grown for 24 hours at 37° C. S-9 cells were then loaded with the calcium dye Fluo-3AM (Molecular Probes, Eugene, Oreg.), 4 μM in a phosphate buffered saline (D-PBS) (Invitrogen, Carlsbad, Calif.), for 1 hour at room temperature. After replacement with 25 μl D-PBS, stimulation was performed in the FLIPR instrument and at room temperature by the addition of 25 μl D-PBS supplemented with different stimuli at concentrations corresponding to twice the desired final level. Receptor activity was quantified by determining the maximal fluorescence increases (using a 480 nm excitation and 535 nm emission) after normalization to basal fluorescence intensity measured before stimulation.
For dose-responses analysis, stimuli were presented in duplicates at 10 different concentrations ranging from 60 nM to 30 μM. Activities were normalized to the response obtained with 400 mM D-fructose, a concentration that elicits maximum receptor response. EC50s were determined using a non-linear regression algorithm (using a Senomyx, Inc. software), where the Hill slope, bottom asymptotes and top asymptotes were allow to vary. Identical results were obtained when analyzing the dose-response data using commercially available software for non-linear regression analysis such as GraphPad PRISM (San Diego, Calif.).

Structure (SMILES) | EC50
CC(C)NC(=O)C(C)(C)c1ccc(-c2cncc(C#N)n2)cc1 [Compound A55] | 0.65 µM
CCCNC(=O)C(C)(C)c1ccc(-c2cccc(COC)c2)cc1 [Compound A78] | 0.67 µM
CC[C@H](CO)NC(=O)C(C)(C)c1ccc(-c2ccccc2)cc1 [Compound A60] | 1.1 µM
CC(C)CNC(=O)C(C)(C)c1ccc(-c2cccc3c2COCOC3)cc1 [Compound A79] | 0.67 µM
COCC(C)NC(=O)C(C)(C)c1ccc(-c2ccccc2)c(F)c1 (stereo not drawn) [Compound A4] | 3.19 µM
CCC(C)CNC(=O)C(C)(C)c1ccc(-c2cncc(COC)c2)cc1 (stereo not drawn) [Compound A70] | 0.51 µM
CC(C)CNC(=O)Cc1ccc(-c2ccccc2)cc1 [Compound A39] | 1.54 µM
CC(C)(C(=O)NC1CCC1)c1ccc(-c2cncc(C#N)n2)cc1 [Compound A49] | 0.37 µM
CC(C(=O)NC1CC1)c1ccc(-c2ccccc2)c(F)c1 (stereo not drawn) [Compound A1] | 3.52 µM
CCCNC(=O)C(C)(C)c1ccc(-c2cncc(COC)c2)cc1 [Compound A29] | 2.91 µM
CC(C)CNC(=O)C(C)(C)c1ccc(-c2cccc3[nH]ccc23)cc1 [Compound A26] | 2.02 µM
CC(C)(C(=O)CCc1ccco1)c1ccc(-c2cncc(C#N)c2)cc1 [Compound A72] | 0.18 µM
COCc1cccc(-c2ccc(C(C)(C)C(=O)NCC(C)C)nc2)c1 [Compound A30] | 3.05 µM
CC[C@H](C)CNC(=O)C(C)(C)c1ccc(-c2cncc(C#N)n2)cc1 [Compound A82] | 0.03 µM
CC(C)CCNC(=O)C(C)(C)c1ccc(-c2cncc(C#N)c2)cc1 [Compound A21] | 0.94 µM
COC(=O)c1cncc(-c2ccc(C(C)(C)C(=O)NCC(C)C)cc2)c1 [Compound A73] | 0.54 µM
CC(C)(C(=O)NC1CCCCC1)c1ccc(-c2cncc(C#N)c2)cc1 [Compound A86] | 0.18 µM
CC(C)CNC(=O)C(C)(C)c1ccc(-c2ccccc2)c(O)c1 [Compound A67] | 1.42 µM
CC(C)CNC(=O)C(C)(C)c1ccc(-c2cc(CO)ccc2C=O)cc1 [Compound A92] | 0.63 µM
CC(C)NC(=O)C(C)(C)c1ccc(-c2cncc(C#N)c2)cc1 [Compound A22] | 0.94 µM
COc1cccc(-c2ccc(C(C)(C)C(=O)NCC(C)C)cc2)c1OC [Compound A18] | 6.6 µM
CCOc1cncc(-c2ccc(C(C)(C)C(=O)NCC(C)C)cc2)c1 [Compound A68] | 1.59 µM
CC(C)CNC(=O)C(C)(C)c1ccc(-c2cnc3ccccn23)cc1 [Compound A25] | 1.23 µM

Same assay, conditions: read-out: EC50 for activation of a hT1R2/hT1R3 sweet receptor expressed in HEK293 cell line

Structure (SMILES) | EC50
COCc1cncc(-c2ccc(C(C)(C)C(=O)NCC(C)C)cc2)n1 [Compound 29, N-isobutyl-2-(4-(6-(methoxymethyl)pyrazin-2-yl)phenyl)-2-methylpropanamide] | 0.26 µM
CC(C)[C@@H](C)NC(=O)C(C)(C)c1ccc(-c2cncnc2)cc1 [Compound 44, (R)-2-methyl-N-(3-methylbutan-2-yl)-2-(4-(pyrimidin-5-yl)phenyl)propanamide] | 0.65 µM
CC[C@@H](C)NC(=O)C(C)(C)c1ccc(-c2cncc(C#N)n2)cc1 [Compound 47, (R)-N-sec-butyl-2-(4-(6-cyanopyrazin-2-yl)phenyl)-2-methylpropanamide] | 0.14 µM
COC(C)CNC(=O)C(C)(C)c1ccc(-c2cncc(C#N)n2)cc1 (stereo not drawn) [Compound 45, 2-(4-(6-cyanopyrazin-2-yl)phenyl)-N-(2-methoxypropyl)-2-methylpropanamide] | 0.92 µM
CCC(CC)NC(=O)C(C)(C)c1ccc(-c2cncnc2)cc1 [Compound 52, 2-methyl-N-(pentan-3-yl)-2-(4-(pyrimidin-5-yl)phenyl)propanamide] | 0.38 µM
CC(C)CNC(=O)C(C)(C)c1ccc(-c2cccc([N+](=O)[O-])c2)cc1 [Compound 8, N-isobutyl-2-methyl-2-(3′-nitrobiphenyl-4-yl)propanamide] | 0.4 µM
COC(=O)c1cccc(-c2ccc(C(C)(C)C(=O)NCC(C)C)cc2)c1 [Compound 10, Methyl 4′-(1-(isobutylamino)-2-methyl-1-oxopropan-2-yl)biphenyl-3-carboxylate] | 0.9 µM
CC(C)(C(=O)NCc1ccco1)c1ccc(-c2cncc(C#N)n2)cc1 [Compound 49, 2-(4-(6-cyanopyrazin-2-yl)phenyl)-N-(furan-2-ylmethyl)-2-methylpropanamide] | 0.47 µM
CC(NC(=O)C(C)(C)c1ccc(-c2cncc(C#N)n2)cc1)c1ccco1 (stereo not drawn) [Compound 48, 2-(4-(6-cyanopyrazin-2-yl)phenyl)-N-(1-(furan-2-yl)ethyl)-2-methylpropanamide] | 0.19 µM
Cc1cc(C(C)(C)C(=O)NCC(C)C)ccc1-c1ccccc1 [Compound 50, N-isobutyl-2-methyl-2-(2-methylbiphenyl-4-yl)propanamide] | 1.42 µM
CC(C)CNC(=O)C(C)(C)c1ccc(-c2cccc(C(=O)N(C)C)c2)cc1 [Compound 17, 2-(3′-((dimethylamino)carbonyl)biphenyl-4-yl)-N-isobutyl-2-methylpropanamide] | 2.7 µM
COCCNC(=O)C(C)c1ccc(-c2ccccc2)c(F)c1 (stereo not drawn) [Compound 5, 2-(2-fluorobiphenyl-4-yl)-N-(2-methoxyethyl)propanamide] | 6.5 µM
CC(C)CNC(=O)C(C)(C)c1ccc(-c2ccccc2C=O)cc1 [Compound 37, 2-(2′-formylbiphenyl-4-yl)-N-isobutyl-2-methylpropanamide] | 0.81 µM
CC(C)CNC(=O)C(C)(C)c1ccc(-c2cccc(O)c2)cc1 [Compound 11, 2-(3′-hydroxybiphenyl-4-yl)-N-isobutyl-2-methylpropanamide] | 1.9 µM
CC(C)CNC(=O)C(C)c1ccc(-c2ccccc2)c(F)c1 (stereo not drawn) [Compound 3, 2-(2-fluorobiphenyl-4-yl)-N-isobutylpropanamide] | 2.8 µM
CCOC(=O)c1cccc(-c2ccc(C(C)(C)C(=O)NCC(C)C)cc2)c1 [Compound 16, Ethyl 4′-(1-(isobutylamino)-2-methyl-1-oxopropan-2-yl)biphenyl-3-carboxylate] | 2.6 µM
